Numbering of substitutions follows the chain as printed.
Tests used:
[1] = target: T1, 5-HT3AB receptor, 5-HT3B subunit Y143A (Homo sapiens, UniProt O95264+P46098, Y136A); assay: cell-based
T1 sequence (P46098 24-478): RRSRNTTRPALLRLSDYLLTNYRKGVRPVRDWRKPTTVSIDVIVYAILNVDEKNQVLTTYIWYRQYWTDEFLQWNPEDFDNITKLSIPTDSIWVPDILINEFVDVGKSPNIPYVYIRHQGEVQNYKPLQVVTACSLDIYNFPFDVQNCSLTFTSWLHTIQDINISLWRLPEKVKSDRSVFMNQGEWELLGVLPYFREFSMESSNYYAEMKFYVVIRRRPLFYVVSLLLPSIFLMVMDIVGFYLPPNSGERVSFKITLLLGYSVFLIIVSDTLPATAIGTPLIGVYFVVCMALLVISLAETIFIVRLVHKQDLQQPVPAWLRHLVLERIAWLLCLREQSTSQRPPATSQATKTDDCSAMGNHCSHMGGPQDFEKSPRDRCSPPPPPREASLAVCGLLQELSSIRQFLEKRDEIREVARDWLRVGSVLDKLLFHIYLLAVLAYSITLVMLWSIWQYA
T1 sequence (O95264 22-441 Y136A): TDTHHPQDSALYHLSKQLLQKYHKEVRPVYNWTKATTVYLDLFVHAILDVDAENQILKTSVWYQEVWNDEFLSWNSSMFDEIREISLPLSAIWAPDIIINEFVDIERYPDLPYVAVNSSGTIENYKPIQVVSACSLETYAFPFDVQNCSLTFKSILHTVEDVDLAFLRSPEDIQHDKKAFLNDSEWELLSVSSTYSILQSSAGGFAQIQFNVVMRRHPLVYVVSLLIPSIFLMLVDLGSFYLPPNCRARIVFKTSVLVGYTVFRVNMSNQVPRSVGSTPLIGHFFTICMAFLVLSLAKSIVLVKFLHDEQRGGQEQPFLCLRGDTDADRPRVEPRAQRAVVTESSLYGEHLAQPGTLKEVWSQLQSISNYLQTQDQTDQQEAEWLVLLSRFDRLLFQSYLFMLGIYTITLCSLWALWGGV
Method: For FlexStation assays, transfected cells were plated on 96-well plates and incubated 1–2 days before assay.
Fluorometric studies were undertaken using a FlexStation® (Molecular Devices, Sunnyvale, CA, USA) as previously described.[11]
Fluorescence was measured every 2 s for 200 s. […] Concentration–response and inhibition curves were obtained for each mutant, and the fluorescence values were normalized to the maximal response.

[2] = target: T2, 5-HT3A receptor W90C (Homo sapiens, UniProt P46098, W85C); assay: radioligand saturation binding, transfected HEK293 membranes; conditions: [3H]-palonosetron saturation, 5-HT3A W90C, 4 °C, 24 h, NB = no binding
T2 sequence (P46098 24-478 W85C): T1 sequence (P46098 24-478) with W62C
Method: (§1) Human embryonic kidney (HEK) 293 cells were cultured on 90 mm tissue culture plates at 37 °C and 7% CO2 in a humidified atmosphere. They were grown in DMEM:F12 (Dulbecco’s Modified Eagle’s Medium/Nutrient Mix F12 (1:1)) with GlutaMAX I™ containing 10% fetal calf serum and passaged when confluent. For radioligand binding studies, cells in 90 mm dishes were transfected at 60–70% confluency using polyethyleneimine and incubated for 3–4 days before use. For FlexStation assays, transfected cells were plated on 96-well plates and incubated 1–2 days before assay. […]
(§2) Eight-point binding assays were performed to produce saturation binding curves. […] Radioactive counts were measured using a Beckman LS6000SC liquid scintillation counter (Fullerton, California, USA).
(§3) Data were analyzed by iterative curve fitting using GraphPad Prism v5 (San Diego, CA) according to the following equation: B=Bmax[L]^n/kdn+[L]^n where B is the amount of bound radioligand, Bmax is the maximum specific binding at equilibrium, [L] is the concentration of radioligand, Kd is the equilibrium dissociation constant of the radioligand, and n is the Hill coefficient.

[3] = target: T3, 5-HT3A receptor F130Y (Homo sapiens, UniProt P46098, F125Y); assay: as above; conditions: [3H]-palonosetron saturation, 5-HT3A F130Y, 4 °C, 24 h
T3 sequence (P46098 24-478 F125Y): T1 sequence (P46098 24-478) with F102Y
Method: as §1, §2, §3

[4] = target: T4, 5-HT3AB receptor, 5-HT3B subunit I183A (Homo sapiens, UniProt O95264+P46098, I176A); assay: as above; conditions: [3H]-palonosetron saturation, 5-HT3AB with 5-HT3B I183A, 4 °C, 24 h
T4 sequence (P46098 24-478): T1 sequence (P46098 24-478)
T4 sequence (O95264 22-441 I176A): T1 sequence (O95264 22-441 Y136A) with A115Y, I155A
Method: as §1, §2, §3

With `O=C1c2cccc3c2[C@H](CCC3)CN1[C@@H]1CN2CCC1CC2` [Palonosetron] the IC50 [1] was 0.38 ± 0.05 nM, the Kd [2] was over 2 nM and the Kd ([2]; listed as [^3H]palonosetron) was “no saturable, specific binding”. The Kd [3] was 0.26 ± 0.09 nM and the Kd [4] was 0.23 ± 0.12 nM.
